Measurements: publication PMC6738096 (British Journal of Cancer, 2019)
Entries after “also recorded” stand apart in the source; their conditions may differ.

Assay: Phase 1 dose-escalation trial: safety and tolerability (TEAEs, SAEs, DLT, MTD, RP2D)
Conditions: for Patients with any AE leading to death: none deemed related to treatment
[1] = safety population, regardless of causality

Experimental: Endpoints included the incidence of DLTs (defined in the ‘Safety' section) in the first 28-day treatment cycle (cycle 1), the frequency and severity of adverse events (AEs) and serious AEs (SAEs) and changes in laboratory values, vital signs, physical examination findings and Eastern Cooperative Oncology Group (ECOG) performance status (PS).
The starting dose was 30 mg, which was determined by review of nonclinical toxicokinetic assessments. A treatment cycle comprised 28 days in the absence of disease progression or unacceptable toxicity. Patients received starting doses ranging from 30 mg once every 24 hours (Q24h) to 480 mg Q24h, and escalation proceeded based on a 3 + 3 design.
The subsequent cohort started at a reduced dosing regimen. Additional dosing schedules were once every 12 hours (Q12h) at 30 and 60 mg and once every 8 hours (Q8h) at 20 and 40 mg.
Toxicities were graded and recorded according to NCI CTCAE version 4.03. Patients were assessed for DLTs during the first 28-day cycle. A DLT was defined as any grade ≥ 3 nonhaematologic toxicity, according to NCI CTCAE version 4.03.

Structure (SMILES): CC(C)NC(=O)[C@H]1CC[C@@H](n2c(NC(=O)c3ccc(F)cc3)nc3ccc(CN4CCC(C(C)(C)O)CC4)cc32)CC1 [TSR-011]
- SAE: Bone pain (40 mg Q8h (n = 31)): 0 n (%)
- SAE: Deep-vein thrombosis (40 mg Q8h (n = 31)): 0 n (%)
- SAE: Dehydration (40 mg Q8h (n = 31)): 0 n (%)
- SAE: Disease progression (40 mg Q8h (n = 31)): 2 (6.5) n (%)
- SAE: Dyspnoea (40 mg Q8h (n = 31)): 0 n (%)
- SAE: Gastric haemorrhage (40 mg Q8h (n = 31)): 0 n (%)
- SAE: Gastric ulcer helicobacter (40 mg Q8h (n = 31)): 1 (3.2) n (%)
- SAE: Infection (40 mg Q8h (n = 31)): 1 (3.2) n (%)
- SAE: Lower respiratory tract infection (40 mg Q8h (n = 31)): 1 (3.2) n (%)
- SAE: Mastoiditis (40 mg Q8h (n = 31)): 0 n (%)
- SAE: Mental impairment (40 mg Q8h (n = 31)): 0 n (%)
- SAE: Metastases to the central nervous system (40 mg Q8h (n = 31)): 1 (3.2) n (%)
- SAE: Pericardial effusion (40 mg Q8h (n = 31)): 1 (3.2) n (%)
- SAE: Pleural effusion (40 mg Q8h (n = 31)): 1 (3.2) n (%)
- SAE: Pneumonia (40 mg Q8h (n = 31)): 1 (3.2) n (%)
- SAE: Portal vein thrombosis (40 mg Q8h (n = 31)): 0 n (%)
- SAE: Seizure (40 mg Q8h (n = 31)): 1 (3.2) n (%)
- SAE: Subarachnoid haemorrhage (40 mg Q8h (n = 31)): 1 (3.2) n (%)
- Total number of TEAEs (40 mg Q8h (n = 31)): 167
- Total number of treatment-emergent SAEs (40 mg Q8h (n = 31)): 16
- Patients with any AE leading to death (40 mg Q8h (n = 31)): 2 (6.5) Number (%)
- Grade ≥ 3 pneumonitis or hypoxia (40 mg TID): no grade ≥ 3 pneumonitis or hypoxia was observed
- Grade 3 ECG QTc prolongation within the DLT period (320 mg Q24h cohort, an additional patient determined retrospectively): One patient
- DLTs (30-, 60-, 120- and 240-mg IR Q24h cohorts): none of the patients experienced DLTs
- Maximum tolerated dose (MTD) (320- and 480-mg Q24h doses): exceeded the maximum tolerated dose; also recorded: exceeded the MTD
- Grade 3 QTc prolongation (480-mg Q24h cohort): two of four patients
- Drug-related TEAE: Abnormal dreams (All patients (N = 72)): 2 (2.8) n (%)
- Drug-related TEAE: Anaemia (All patients (N = 72)): 2 (2.8) n (%)
- Drug-related TEAE: Asthenia (All patients (N = 72)): 2 (2.8) n (%)
- Drug-related TEAE: Constipation (All patients (N = 72)): 5 (6.9) n (%)
- Drug-related TEAE: Decreased appetite (All patients (N = 72)): 4 (5.6) n (%)
- Drug-related TEAE: Diarrhoea (All patients (N = 72)): 3 (4.2) n (%)
- Drug-related TEAE: Dysaesthesia (All patients (N = 72)): 2 (2.8) n (%)
- Drug-related TEAE: Dysgeusia (All patients (N = 72)): 3 (4.2) n (%)
- Drug-related TEAE: Electrocardiogram QTc prolonged (All patients (N = 72)): 12 (16.7) n (%)
- Drug-related TEAE: Fatigue (All patients (N = 72)): 4 (5.6) n (%)
- Drug-related TEAE: Headache (All patients (N = 72)): 3 (4.2) n (%)
- Drug-related TEAE: Hot flush (All patients (N = 72)): 2 (2.8) n (%)
- Drug-related TEAE: Increased transaminases (All patients (N = 72)): 2 (2.8) n (%)
- Drug-related TEAE: Insomnia (All patients (N = 72)): 2 (2.8) n (%)
- Drug-related TEAE: Myalgia (All patients (N = 72)): 2 (2.8) n (%)
- Drug-related TEAE: Nausea (All patients (N = 72)): 3 (4.2) n (%)
- Drug-related TEAE: Peripheral oedema (All patients (N = 72)): 3 (4.2) n (%)
- Drug-related TEAE: Rash (All patients (N = 72)): 2 (2.8) n (%)
- Drug-related TEAE: Vomiting (All patients (N = 72)): 4 (5.6) n (%)
- Grade 3 TEAE: Anaemia (All patients (N = 72)): 5 (6.9) n (%)
- Grade 3 TEAE: Ascites (All patients (N = 72)): 2 (2.8) n (%)
- Grade 3 TEAE: Asthenia (All patients (N = 72)): 3 (4.2) n (%)
- Grade 3 TEAE: Dyspnoea (All patients (N = 72)): 3 (4.2) n (%)
- Grade 3 TEAE: Electrocardiogram QTc prolonged (All patients (N = 72)): 4 (5.6) n (%)
- Grade 3 TEAE: Fatigue (All patients (N = 72)): 2 (2.8) n (%)
- Grade 3 TEAE: Metastases to the central nervous system (All patients (N = 72)): 2 (2.8) n (%)
- Patients with any TEAE (All patients (N = 72)): 70 (97.2) Number (%)
- Patients with any TEAE leading to treatment discontinuation (All patients (N = 72)): 11 (15.3) Number (%)
- Patients with any serious TEAE (All patients (N = 72)): 28 (38.9) Number (%)
- Patients with any study drug-related TEAE (All patients (N = 72)): 40 (55.6) Number (%)
- Patients with ≥ 1 treatment-emergent SAE (All patients (N = 72)): 28 (38.9) n (%)
- SAE class: Blood and lymphatic system disorders (All patients (N = 72)): 2 (2.8) n (%)
- SAE class: Cardiac disorders (All patients (N = 72)): 1 (1.4) n (%)
- SAE class: Gastrointestinal disorders (All patients (N = 72)): 5 (6.9) n (%)
- SAE class: General disorders and administration-site conditions (All patients (N = 72)): 7 (9.7) n (%)
- SAE class: Hepatobiliary disorders (All patients (N = 72)): 1 (1.4) n (%)
- SAE class: Infections and infestations (All patients (N = 72)): 5 (6.9) n (%)
- SAE class: Metabolism and nutrition disorders (All patients (N = 72)): 1 (1.4) n (%)
- SAE class: Musculoskeletal and connective tissue disorders (All patients (N = 72)): 1 (1.4) n (%)
- SAE class: Neoplasms benign, malignant and unspecified (including cysts and polyps) (All patients (N = 72)): 3 (4.2) n (%)
- SAE class: Nervous system disorders (All patients (N = 72)): 8 (11.1) n (%)
- SAE class: Respiratory, thoracic and mediastinal disorders (All patients (N = 72)): 4 (5.6) n (%)
- SAE class: Vascular disorders (All patients (N = 72)): 1 (1.4) n (%)
- SAE: Abdominal pain (All patients (N = 72)): 1 (1.4) n (%)
- SAE: Anaemia (All patients (N = 72)): 2 (2.8) n (%)
- SAE: Asthenia (All patients (N = 72)): 1 (1.4) n (%)
- SAE: Basal cell carcinoma (All patients (N = 72)): 1 (1.4) n (%)
- SAE: Bone pain (All patients (N = 72)): 1 (1.4) n (%)
- SAE: Deep-vein thrombosis (All patients (N = 72)): 1 (1.4) n (%)
- SAE: Dehydration (All patients (N = 72)): 1 (1.4) n (%)
- SAE: Disease progression (All patients (N = 72)): 6 (8.3) n (%)
- SAE: Dyspnoea (All patients (N = 72)): 3 (4.2) n (%)
- SAE: Gastric haemorrhage (All patients (N = 72)): 1 (1.4) n (%)
- SAE: Gastric ulcer helicobacter (All patients (N = 72)): 1 (1.4) n (%)
- SAE: Infection (All patients (N = 72)): 1 (1.4) n (%)
- SAE: Lower respiratory tract infection (All patients (N = 72)): 1 (1.4) n (%)
- SAE: Mastoiditis (All patients (N = 72)): 1 (1.4) n (%)
- SAE: Mental impairment (All patients (N = 72)): 2 (2.8) n (%)
- SAE: Metastases to the central nervous system (All patients (N = 72)): 2 (2.8) n (%)
- SAE: Pericardial effusion (All patients (N = 72)): 1 (1.4) n (%)
- SAE: Pleural effusion (All patients (N = 72)): 1 (1.4) n (%)
- SAE: Pneumonia (All patients (N = 72)): 1 (1.4) n (%)
- SAE: Portal vein thrombosis (All patients (N = 72)): 1 (1.4) n (%)
- SAE: Seizure (All patients (N = 72)): 2 (2.8) n (%)
- SAE: Subarachnoid haemorrhage (All patients (N = 72)): 1 (1.4) n (%)
- Total number of TEAEs (All patients (N = 72)): 621
- Total number of treatment-emergent SAEs (All patients (N = 72)): 49
- Patients with any AE leading to death (All patients (N = 72)): 6 (8.3) Number (%)
- Most common grade 3–4 TEAEs, patients (RP2D 40 mg Q8h): 3.2–6.5%
- Recommended phase 2 dose (RP2D) (every 8 hours (Q8h, TID), IR): 40 mg
- Grade 3 TEAEs, patients (safety population): 51.4%
- Grade 4 TEAE of anaemia (safety population): One patient
- SAE disease progression, patients (safety population): 8.3%
- Study drug-related SAE, patients (safety population): 1.4%
- Study drug-related TEAEs, patients (safety population): 55.6%
- TEAEs leading to study drug discontinuation, patients (safety population): 15.3%
- TEAEs of grade 1 severity (safety population): 64 % of events
- Treatment-emergent SAEs, patients (safety population): 38.9%
- Patients with ≥ 1 TEAE (safety population (N = 72)): 97.2%
- TEAE QTc prolongation, patients [1]: 18.1%
- TEAE anaemia, patients [1]: 15.3%
- TEAE asthenia, patients [1]: 15.3%
- TEAE class gastrointestinal disorders, patients [1]: 61.1%
- TEAE class general disorders and administration-site conditions, patients [1]: 50.0%
- TEAE constipation, patients [1]: 19.4%
- TEAE decreased appetite, patients [1]: 15.3%
- TEAE diarrhoea, patients [1]: 18.1%
- TEAE fatigue, patients [1]: 19.4%
- TEAE headache, patients [1]: 15.3%
- TEAE vomiting, patients [1]: 18.1%
